Reference: the supplement of paper PMC7214452

Experiments:
Experiment in all cases: normalized area under the dose-response curve (viability relative to DMSO control) (fraction); higher = less sensitive (more viable cells)
Conditions in all cases: exposure time not given
AMO1 (cancer type: MM) = system: AMO1 (cancer type: MM)
Procedure: (§1)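 25 myeloma and 15 non-Hodgkin lymphoma cell lines were exposed to each of 76 drugs as 7-point log dilutions (0.01 nM–10 µM) in duplicate. Viability was read with CellTiter-Glo and normalised to DMSO (0.1%) and staurosporine (10 µM) plate controls. Normalised AUC was calculated by the trapezoidal method relative to the negative control.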

EJM (cancer type: MM) = system: EJM (cancer type: MM)
Procedure: as §1

FR4 (cancer type: MM) = system: FR4 (cancer type: MM)
Procedure: as §1

[1] = system: Granta-519 (cancer type: Mantle)
Procedure: as §1

[2] = system: HuT 78 (cancer type: TCL)
Procedure: as §1

JJN3 (cancer type: MM) = system: JJN3 (cancer type: MM)
Procedure: as §1

[3] = system: JVM2 (cancer type: Mantle)
Procedure: as §1

[4] = system: JeKo-1 (cancer type: Mantle)
Procedure: as §1

KMS11 (cancer type: MM) = system: KMS11 (cancer type: MM)
Procedure: as §1

[5] = system: KMS12PE (cancer type: MM)
Procedure: as §1

KMS18 (cancer type: MM) = system: KMS18 (cancer type: MM)
Procedure: as §1

KMS26 (cancer type: MM) = system: KMS26 (cancer type: MM)
Procedure: as §1

[6] = system: KMS28BM (cancer type: MM)
Procedure: as §1

[7] = system: KMS28PE (cancer type: MM)
Procedure: as §1

KMS34 (cancer type: MM) = system: KMS34 (cancer type: MM)
Procedure: as §1

[8] = system: Karpas-299 (cancer type: TCL)
Procedure: as §1

L363 (cancer type: MM) = system: L363 (cancer type: MM)
Procedure: as §1

LP1 (cancer type: MM) = system: LP1 (cancer type: MM)
Procedure: as §1

MM1.R (cancer type: MM) = system: MM1.R (cancer type: MM)
Procedure: as §1

MM1.S (cancer type: MM) = system: MM1.S (cancer type: MM)
Procedure: as §1

[9] = system: Mino (cancer type: Mantle)
Procedure: as §1

My-La (cancer type: TCL) = system: My-La (cancer type: TCL)
Procedure: as §1

[10] = system: NCI-H929 (cancer type: MM)
Procedure: as §1

[11] = system: OCI-LY1 (cancer type: DLBCL)
Procedure: as §1

[12] = system: OCI-LY19 (cancer type: DLBCL)
Procedure: as §1

[13] = system: OCI-LY3 (cancer type: DLBCL)
Procedure: as §1

[14] = system: OCI-MY5 (cancer type: MM)
Procedure: as §1

[15] = system: OCI-MY5/CRBN (cancer type: MM)
Procedure: as §1

[16] = system: OCI-MY5/Vec (cancer type: MM)
Procedure: as §1

[17] = system: OCI-MY7 (cancer type: MM)
Procedure: as §1

OPM2 (cancer type: MM) = system: OPM2 (cancer type: MM)
Procedure: as §1

[18] = system: RPMI 8226 (cancer type: MM)
Procedure: as §1

SKMM2 (cancer type: MM) = system: SKMM2 (cancer type: MM)
Procedure: as §1

[19] = system: SR-786 (cancer type: TCL)
Procedure: as §1

[20] = system: SU-DHL1 (cancer type: TCL)
Procedure: as §1

[21] = system: SU-DHL2 (cancer type: DLBCL)
Procedure: as §1

[22] = system: SU-DHL6 (cancer type: DLBCL)
Procedure: as §1

Se-Ax (cancer type: TCL) = system: Se-Ax (cancer type: TCL)
Procedure: as §1

U266 (cancer type: MM) = system: U266 (cancer type: MM)
Procedure: as §1

XG2 (cancer type: MM) = system: XG2 (cancer type: MM)
Procedure: as §1

SMILES	normalized area under the dose-response curve (AMO1 (cancer type: MM))	normalized area under the dose-response curve (EJM (cancer type: MM))	normalized area under the dose-response curve (FR4 (cancer type: MM))	normalized area under the dose-response curve [1]	normalized area under the dose-response curve [2]	normalized area under the dose-response curve (JJN3 (cancer type: MM))	normalized area under the dose-response curve [3]	normalized area under the dose-response curve [4]	normalized area under the dose-response curve (KMS11 (cancer type: MM))	normalized area under the dose-response curve [5]	normalized area under the dose-response curve (KMS18 (cancer type: MM))	normalized area under the dose-response curve (KMS26 (cancer type: MM))	normalized area under the dose-response curve [6]	normalized area under the dose-response curve [7]	normalized area under the dose-response curve (KMS34 (cancer type: MM))	normalized area under the dose-response curve [8]	normalized area under the dose-response curve (L363 (cancer type: MM))	normalized area under the dose-response curve (LP1 (cancer type: MM))	normalized area under the dose-response curve (MM1.R (cancer type: MM))	normalized area under the dose-response curve (MM1.S (cancer type: MM))	normalized area under the dose-response curve [9]	normalized area under the dose-response curve (My-La (cancer type: TCL))	normalized area under the dose-response curve [10]	normalized area under the dose-response curve [11]	normalized area under the dose-response curve [12]	normalized area under the dose-response curve [13]	normalized area under the dose-response curve [14]	normalized area under the dose-response curve [15]	normalized area under the dose-response curve [16]	normalized area under the dose-response curve [17]	normalized area under the dose-response curve (OPM2 (cancer type: MM))	normalized area under the dose-response curve [18]	normalized area under the dose-response curve (SKMM2 (cancer type: MM))	normalized area under the dose-response curve [19]	normalized area under the dose-response curve [20]	normalized area under the dose-response curve [21]	normalized area under the dose-response curve [22]	normalized area under the dose-response curve (Se-Ax (cancer type: TCL))	normalized area under the dose-response curve (U266 (cancer type: MM))	normalized area under the dose-response curve (XG2 (cancer type: MM))
CC(C)(C)c1cc(NC(=O)Nc2ccc(-c3cn4c(n3)sc3cc(OCCN5CCOCC5)ccc34)cc2)no1 [Quizartinib]	0.837	0.861	0.923	0.941	0.865	0.631	0.764	0.98	0.828	0.87	0.737	0.934	0.838	0.898	0.439	0.93	0.751	0.766	0.69	0.82	0.863	0.917	0.88	0.987	0.923	0.959	0.65	0.917	0.894	0.91	0.531	0.955	0.973	0.869	0.686	0.956	0.907	0.825	0.867	0.763
C/C=C1\NC(=O)[C@H]2CSSCC/C=C/[C@H](CC(=O)N[C@H](C(C)C)C(=O)N2)OC(=O)[C@H](C(C)C)NC1=O [Romidepsin]	0.224	0.105	0.152	0.209	0.0814	0.324	0.148	0.174	0.382	0.24	0.291	0.257	0.271	0.262	0.206	0.118	0.401	0.447	0.33	0.23	0.178	0.109	0.09	0.118	0.198	0.203	0.13	0.0857	0.143	0.5	0.445	0.433	0.511	0.148	0.113	0.188	0.385	0.107	0.21	0.15
O=C(/C=C/c1cccc(S(=O)(=O)Nc2ccccc2)c1)NO [Belinostat]	0.301	0.247	0.428	0.531	0.178	0.53	0.385	0.229	0.445	0.4	0.553	0.366	0.416	0.384	0.274	0.0712	0.473	0.628	0.36	0.21	0.249	0.506	0.1	0.223	0.38	0.343	0.201	0.262	0.25	0.44	0.674	0.564	0.712	0.215	0.218	0.4	0.582	0.215	0.394	0.473
Nc1ncn([C@H]2C[C@H](O)[C@@H](CO)O2)c(=O)n1 [Decitabine]	0.836	0.916	0.937	0.978	0.958	0.912	0.879	0.644	0.871	0.9	0.97	0.897	0.955	0.778	0.702	0.912	0.82	0.88	0.85	0.89	0.818	0.957	0.89	0.912	0.84	0.883	0.773	0.888	0.93	0.91	0.835	0.914	0.933	0.854	0.962	0.94	0.844	0.832	0.804	0.896
